Results from patent US9585871B2, “Method for treating and curing leishmaniosis using fexinidazole” (Merial Limited, priority 2013, dated 2017).
Values joined by “and” are separate entries in the source; they are usually repeats but may differ in a detail not shown here. Equal values may be shown once.

Experiments:
Format in all cases: in vivo
[1] = tested on: L. infantum; assay: Clinical study in dogs infected with L. infantum: Clinical Score; design: key: additive score of clinical signs (body condition, lymphadenopathy, etc.); details: Glucantime 100 mg/kg dNMA SC or Fexinidazole 60 mg/kg PO once daily Days 0-27
Description: (§1) In a clinical study, dogs infected with L. infantum were treated with meglumine antimoniate (GLUCANTIME®, Merial) as a positive control, or FEX (Table 5). Eight blocks of two animals were formed based antibody titers and biological scores. Six dogs in each group were naturally infected by housing them in an endemic area for two years and two dogs in each group were artificially infected by intravenous administration of a known quantity of parasites recovered from the spleen of an infected dog.
(§2) The first group (FEX) was compared to the second group, which was treated with 27 mg/kg GLUCANTIME (meglumine antimoniate, or 100 mg/kg of dNMA) “GLU”), over 28 days.
(§3) Variables. The Clinical Score is an additive score of various clinical signs (body condition, lymphadenopathy, splenomegaly, appetite, behavior, mucous membrane color, dermatopathology, ocular signs, digestive signs, arthropathy) evaluated before treatment and on Days 7, 14, 21, 28, 57, 184, 219, 254, 282, 310, 345, 400 and 436. The Overall Biological Score is an additive score based on the severity of changes in hematology/chemistry values (creatinine, urine protein/creatinine, Hct, globulin, ALAT), evaluated pretreatment and on Days 28, 57, and 181. The L. infantum immunofluorescent antibody titers (IFAT) were determined from samples collected before treatment and on Days 28, 57, and 181. Finally, quantitative PCR (qPCR) for L. infantum was conducted on spleen aspirates collected before treatment and on Days 28, 57, 142, 184, and 373.

[2] = tested on: L. infantum; assay: Clinical study in dogs infected with L. infantum: qPCR on spleen aspirates; details: spleen aspirate, Glucantime 100 mg/kg dNMA SC or Fexinidazole 60 mg/kg PO once daily Days 0-27
Description: as §1, §2, §3

[3] = tested on: L. infantum; assay: Clinical study in dogs infected with L. infantum: overall outcome (cure, relapse, removal of animals)
Description: as §1
The first group (FEX) was compared to the second group, which was treated with 27 mg/kg GLUCANTIME (meglumine antimoniate, or 100 mg/kg of dNMA) “GLU”), over 28 days. […]

[4] = tested on: L. infantum; assay: Clinical study in dogs infected with L. infantum: Overall Biological Score; design: key: additive score of severity of hematology/chemistry changes; details: Glucantime 100 mg/kg dNMA SC or Fexinidazole 60 mg/kg PO once daily Days 0-27
Description: as §1, §2, §3

[5] = Day −7 (before treatment), individual dogs

meglumine antimoniate [Glucantime]
Clinical Score, group average ([1]; Day 7): 1.3
Clinical Score, group average ([1]; Day 14): 1.1
Clinical Score, group average ([1]; Day 21): 2.1
Clinical Score ([1]; Day 28, individual dogs): 0
Clinical Score, group average ([1]; Day 28, Group 1 includes D21 data of Block 3 dog carried forward): 1.33
Clinical Score ([1]; Day 57, individual dogs): 0
Clinical Score, group average ([1]; Day 57, Group 1 includes D21 data of Block 3 dog carried forward): 1.33
Clinical Score ([1]; Day 184, individual dogs): 0
Clinical Score, group average ([1]; Day 184): 0.0
Clinical Score ([1]; Day 219, individual dogs): 0
Clinical Score, group average ([1]; Day 219): 0.0
Clinical Score ([1]; Day 254, individual dogs): 3 and 0 (2×)
Clinical Score, group average ([1]; Day 254): 1.0
Clinical Score ([1]; Day 282, individual dogs): 3 and 0 (2×)
Clinical Score, group average ([1]; Day 282): 1.0
Clinical Score ([1]; Day 310, individual dogs): 2 and 0 (2×)
Clinical Score, group average ([1]; Day 310): 0.7
Clinical Score ([1]; Day 345, individual dogs): 0
Clinical Score, group average ([1]; Day 345): 0.0
Clinical Score ([1]; Day 400, individual dogs): 1 and 0 (2×)
Clinical Score, group average ([1]; Day 400): 0.3
Clinical Score ([1]; Day 436, individual dogs): 4 and 0 (2×)
Clinical Score, group average ([1]; Day 436): 1.3
Clinical Score [1, 5]: 2 (3×) and 0 (4×) and 3
Clinical Score, group average ([1]; Day −7 (before treatment)): 1.1
qPCR for L. infantum ([2]; Day 28, individual dogs): 4.04 log copies/mL and 3.73 log copies/mL and 5.93 log copies/mL and 5.63^3 log copies/mL and BLOQ^1 (BLOQ = Below Level of Quantification = < log 3.64 copies/mL spleen aspirate) and 5.77 log copies/mL and 6.40^2 log copies/mL and 5.81 log copies/mL
qPCR for L. infantum ([2]; Day 57, individual dogs): BLOQ (BLOQ = Below Level of Quantification = < log 3.64 copies/mL spleen aspirate) (3×) and 4.93 log copies/mL and 5.14 log copies/mL and 4.78 log copies/mL
qPCR for L. infantum ([2]; Day 142, individual dogs): BLOQ (BLOQ = Below Level of Quantification = < log 3.64 copies/mL spleen aspirate) (3×) and 4.73 log copies/mL and 5.57 log copies/mL and 3.94 log copies/mL
qPCR for L. infantum ([2]; Day 184, individual dogs): BLOQ (BLOQ = Below Level of Quantification = < log 3.64 copies/mL spleen aspirate) (2×) and 3.97 log copies/mL and 5.53 log copies/mL and 7.01 log copies/mL and 5.62 log copies/mL
qPCR for L. infantum ([2]; Day 373, individual dogs): BLOQ (BLOQ = Below Level of Quantification = < log 3.64 copies/mL spleen aspirate) and 5.23 log copies/mL and 3.83 log copies/mL
qPCR for L. infantum [2, 5]: 5.81 log copies/mL and 4.38 log copies/mL and 6.40 log copies/mL and 5.10 log copies/mL and 5.12 log copies/mL and 6.87 log copies/mL and 6.17 log copies/mL and 6.70 log copies/mL
removal of animal due to deterioration ([3]; Group 1 Block 3 dog, Glucantime 100 mg/kg dNMA SC once daily Days 0-27): ^1Dog Group 1 Block 3 removed on Day 28 due to continued deterioration
removal of animal due to toxicity ([3]; Group 1 Block 8 dog, Glucantime 100 mg/kg dNMA SC once daily): ^2Dog Group 1 Block 8 removed on Day 20 due to GLUCANTIME toxicity
removal of animals due to lack of efficacy ([3]; Group 1 Blocks 2, 4, 7 dogs, Glucantime 100 mg/kg dNMA SC once daily Days 0-27): ^3Dogs Group 1 Blocks 2, 4, 7 removed after Day 184 due to lack of GLUCANTIME efficacy
Overall Biological Score ([4]; Day 28, individual dogs): 2 (2×) and 1 and 4 and 3 (2×) and 2^1
Overall Biological Score, group average ([4]; Day 28): 2.4
Overall Biological Score ([4]; Day 57, individual dogs): 1 (4×) and 4 (2×)
Overall Biological Score, group average ([4]; Day 57, Group 1 includes D28 data of Block 3 dog carried forward): 2.0^3
Overall Biological Score ([4]; Day 181, individual dogs): 3 (2×) and 2 (2×) and 0 and 6
Overall Biological Score, group average ([4]; Day 181, Group 1 includes D28 data of Block 3 dog carried forward): 2.7
Overall Biological Score ([4]; Day −14 (pretreatment), individual dogs): 6 and 1 (2×) and 3 (2×) and 7 and 2 (2×)
Overall Biological Score, group average ([4]; Day −14 (pretreatment)): 3.1
